{
  "source": "patent US11944092B2",
  "about": "“Compositions for controlling phytoplankton contamination” (BLUEGREEN WATER TECHNOLOGIES LTD., priority 2019, dated 2024)",
  "key": {"[1]": {"test_system": "Microcystis", "details": "cited from earlier work"}, "[2]": {"test_system": "Planktothrix agardhii", "details": "cited from earlier work"}, "[3]": {"test_system": "Microcystis", "details": "in vivo"}, "[4]": {"test_system": "Planktothrix agardhii", "details": "equivalent of 2.5 mg/L in 1140 L, 9500 cm^2"}, "[5]": {"test": "Buoyancy by weighing-pan set-up (FIG. 2)", "type": "physicochemical", "text": "FIG. 2 schematically illustrates an experimental set-up for testing the buoyancy of the herein disclosed compositions, including (1) a balance; (2) a measuring pod with an aperture; (3) an underneath hook to measure weight; (4) a beaker filled with water simulating an aquatic system; (5) a weighing-pan.\nIn order to test the buoyancy of the herein disclosed compositions, an experimental set-up, schematically illustrated in FIG. 2, was applied. In this set-up, a laboratory balance 1 (0-2,000±0.1 g) was positioned to measure the weight of a composition placed on a weighing-pan 5 immersed in a beaker filled with water 4. If the composition is non-buoyant (AI without the coating material) an increase in weight is anticipated (‘negative control’). Oppositely, if the composition is buoyant, the weight is expected to remain essentially unchanged."}, "[6]": {"test": "Buoyancy of sodium percarbonate in 15 ml vials", "type": "physicochemical", "details": "5 grams, FIG. 5"}, "[7]": {"test": "Sedimentation analysis in 10-liter cylinders with sediment", "type": "physicochemical", "details": "10-liter cylinder, after one hour, FIG. 6", "protocol": "Two 10-liter cylinders were filled with water and supplemented with sediment. To one cylinder, granules of copper sulfate pentahydrate (mimicking standard treatment) were added, while a buoyant copper-based composition was added to the other cylinder."}, "[8]": {"test_system": "algal bloom (cyanobacterial biomass)", "test": "Seasonal treatment of algal bloom at ~1.04 km^2 irrigation pond", "type": "in vivo", "protocol": "As detailed in FIG. 9, biomass and total copper concentrations were measured during the first two days to assess efficacy and minimal required AI concentrations. Cyanobacterial biomass was measured using a YSI Exo-3 probe that was supplied with a GPS. […] Water samples for total copper concentrations, as well as estimation of particle time travel on the water, as well as final coverage, was done with a kayak and by using a laser distance/range measurer. Total copper concentrations were measured with a YSI 9300 photometer in accordance with manufacturer instructions."}, "[9]": {"test": "Buoyancy and resurfacing of coated copper sulfate compositions in water (vials, glasses; visual)", "type": "physicochemical", "details": "granular copper sulfate with different % (w/w) coating placed in water, FIG. 1"}},
  "data": [
    {"compound": "OO", "note": "[H2O2, hydrogen peroxide]", "values": [
      {"measurement": "H2O2 dose at which abundance of Microcystis decreased", "setting": "[1]; 150 L mesocosm", "value": "≥ 4", "unit": "mg/L"},
      {"measurement": "cell density of Microcystis", "setting": "[1]; H2O2 dose 2 mg/L", "value": "did not decrease"},
      {"measurement": "time to reappearance of high Microcystis cell density", "setting": "[1]; H2O2 dose of 2 mg/L", "value": 11, "unit": "days"},
      {"measurement": "lowest H2O2 concentration that sufficed to significantly reduce the P. agardhii population", "setting": "[2]; Plexiglas containers, 2*10^6 cells/mL", "value": 2.5, "unit": "mg/L"},
      {"measurement": "photosynthetic performance and cell counts of zooplankton population", "setting": "[2]; at 2.5 mg/L H2O2", "value": "severely reduced"},
      {"measurement": "time until cyanobacteria population started to recover", "setting": "[2]; natural water body", "value": "6-7 weeks"},
      {"measurement": "H2O2 amount per surface area at which Microcystis decreased", "setting": "[3]", "value": "≥ 2.44", "unit": "gr/m^2"},
      {"measurement": "lowest effective H2O2 amount per surface area", "setting": "[4]", "value": 2.85, "unit": "gr/m^2"}
    ]},
    {"compound": "O=c1nc([O-])n(Cl)c(=O)n1Cl.[Na+]", "note": "[un-encapsulated NADCC, sodium dichloroisocyanurate]", "values": [
      {"measurement": "weight increase on weighing-pan", "setting": "[5]; 9.5 grams placed on the weighing-pan in water", "value": "~5.3", "unit": "g"}
    ]},
    {"compound": "O=C([O-])[O-].O=C([O-])[O-].OO.OO.OO.[Na+].[Na+].[Na+].[Na+]", "note": "[uncoated sodium percarbonate, sodium percarbonate]", "values": [
      {"measurement": "buoyancy in water", "setting": "[6]", "value": "sank immediately"}
    ]},
    {"compound": "copper sulfate pentahydrate", "values": [
      {"measurement": "behaviour in water column with sediment", "setting": "[7]", "value": "immediately sank into the sediment"},
      {"measurement": "average chlorophyll-a concentration", "setting": "[8]; 2015, 6 aerial applications, total of 8,000 kg", "value": "100-200 μg chlorophyll-a/L"},
      {"measurement": "average cyanobacterial concentration (chlorophyll-a)", "setting": "[8]; 2016, 7 aerial applications of 2000 kg", "value": "60 to 80", "unit": "µg/L"},
      {"measurement": "weight increase on weighing-pan", "setting": "[5]; samples of 100 grams, set-up of FIG. 2", "value": "50%±3%"},
      {"measurement": "buoyancy in water (floating, sinking, resurfacing)", "setting": "[9]; listed as non-coated active ingredient (0.0% (w/w))", "value": "sank immediately to the bottom"},
      {"measurement": "buoyancy in water (floating, sinking, resurfacing)", "setting": "[9]; listed as raw copper salt (“0% coating”)", "value": "sunk immediately after dispersion"}
    ]}
  ]
}
